# Like-named read-outs stand apart in the source and are kept apart here.
# Assays:
# [1] = system: cell layer of the invention; assay: Ginkgo extract ingredient profiles, apical vs basal side of the cell layer; format: in vitro ADME, human
# Protocol: FIG. 8. Representative chromatogram of intact flavonol glycosides determined in fluid from the apical side of the cell layer 60 minutes after application of standardized ginkgo extract (equivalent of 10 mg extract).
# FIG. 9. Representative chromatogram of intact flavonol glycosides determined in fluid from the basal side of the cell layer 60 minutes after application of standardized ginkgo extract (equivalent of 10 mg extract).
# FIG. 10. Representative chromatogram of ginkgolides determined in fluid from the apical side of the cell membrane 60 minutes after application of standardized ginkgo extract (equivalent of 20 mg extract).
# FIG. 11. Representative chromatogram of ginkgolides determined in fluid from the basal side of the cell layer 60 minutes after application of standardized ginkgo extract (equivalent of 400 mg extract).
# In some embodiments, compositions for processing in accordance with the methods of the invention may include natural substances, such as crude extracts or formulations from natural products such as plants, which may be dissolved or suspended in an aqueous solution, such as a pH buffered solution or an artificial intestinal fluid. In alternative embodiments, a sample of these substances may be treated with artificial gastric juices to test prior to processing with the cell layers of the invention, for example to test for potential decomposition of ingredients under acidic conditions. In some embodiments, a known concentration of the solution or composition for processing, in either buffered solution or artificial intestinal fluid, may be applied to the apical or first side of the cell layer (membrane). Subsequently, one or more samples may be collected from the basal or second side of the cell layer, which may for example contain a cell culture medium or human plasma or components of human plasma such as albumin. In alternative embodiments, samples may be taken from the apical and basal sides for ingredient identification and/or quantification. Common analytical approaches such as high performance liquid chromatography (HPLC), mass spectrometry (MS), gas chromatography (GC), LC/MS, or GC/MS may then be used for the identification or quantification of the components present in the physiologically modified composition.
# Although the invention may be used to conduct permeability screening in a manner similar to how Caco-2 the industry standard is used, it has a unique and novel application in identifying absorbable active ingredients in natural health products (or natural products or nutraceuticals or botanicals or herbals or dietary supplements) or any products that contain mixtures of ingredients of interest (as marker substances or active ingredients) or botanicals. The idea is as follows. Similar to pharmaceutical development, components are not considered active unless they are absorbed into the blood stream. A number of methods have been developed to measure the activities of botanical extracts; very few have measured the active components, let alone absorbable components that are active. It has been shown time and again that marker components that have in vitro activities are not absorbed. The active ingredient profile determined using in vitro methods is usually erroneous; this is particularly true for the proportion of the ingredients required because the absorption of individual components is potentially different. A good example is the determination of the ingredient profiles of Ginkgo biloba. People think that the ratios of the ingredients in the herb are important (See FIGS. 8, 10, Tables 3, 4, apical side ratios). But it is only the absorbed ingredients that can have activity and not all ingredients are absorbed or absorbed at the same rate. Therefore, the profiles of absorbed ingredients will differ from the profiles of ingredients in the product, and it is the absorbed ingredient profiles that are biologically most relevant. […]
# [2] = system: SCBN cells; assay: TEER of SCBN cell layers in different culture conditions; format: cell-based, human; conditions: SCBN cells on rat-tail collagen, supplemented base medium; day 3 (48 hours after medium change)
# Protocol: FIG. 1: illustrates the TEER values of SCBN cells in different culture conditions. TEER measurement was conducted by using EVOM voltmeter from World Precision Instrument.
# TEER values may be assayed using any conventional equipment capable of measuring electrical resistance, such as […] from World Precision Instruments.
# (§1) To assay the structure of microvilli and to measure TEER, SCBN cells were cultured with DMEM media supplemented with FBS and collected at 24 hours post confluence. Harvested cells were seeded at the density of 1E5 cells/well in Falcon multiple insert plates (0.31 cm2/well). […] Forty-eight hours after medium change, SCBN cells were processed for SEM examination following conventional SEM sample preparation. Assessments of microvilli structure were made from SEM images.
# [3] = system: SCBN cells; assay: Microvilli structure of SCBN cells by SEM; format: cell-based, human; conditions: SEM 48 hours after medium change; for length of microvilli: 5 μM Ro31-8220 and/or 5 mM sodium butyrate in base medium
# Protocol: as §1
# [4] = system: Kinetana cells using the Buret growth condition; assay: Permeability in Kinetana cells using the Buret growth condition; format: in vitro ADME, human
# Source text: The proprietary growth conditions result in a different paracellular diffusion performance of the Kinetana cell line compared with CaCo-2 and T-84 human colon cancer cell lines (He, Murby et al. 1998) and also SCBN with the Buret condition. The proprietary condition correlates better with human paracellular marker permeability, and this appears to relate to the differences in tight junction pore size between the new method and the others. The evidence for these claims is as follows.
# (§2) The bioavailability of PEG 900 is reported to be 10% (Yee 1997).
# [5] = system: Caco-2; assay: Permeability across CaCo-2 monolayers; format: in vitro ADME, human
# Source text: (§3) (He, Murby et al. 1998) relate the permeability profile of PEG oligomers to tight junction pore size. Their data in CaCo-2 correspond very closely to Kinetana's data with Caco-2, in that there is a steep drop-off in permeability between molecular weights 200 and 450, then a leveling off. The invention permeability, in contrast, declines slowly and continuously from MW 200 to over 1,000 Da (FIG. 3).
# as §2
# [6] = system: monolayers of the invention (Kinetana cell line); assay: Permeability across monolayers of the invention; format: in vitro ADME, human
# Source text: as §3, §2
# [7] = Yee 1997; cited from earlier work
# [8] = system: SCBN cells; assay: Enzyme expression in SCBN cell lysate; format: cell-based, human; conditions: 5 μM Ro 31-8220 alone
# Protocol: FIG. 2: illustrates the expression of enzymes in SCBN cells cultured under culture conditions of the invention. Enzyme activity is expressed as milliunit per mg of protein. One unit equals the digestion of one μmole of substrate per minute at 37° C. AP: Alkaline phosphatase; DPP: dipeptidylpeptidase-IV; APN: aminopeptidase N; APA: aminopeptidase A.
# To assay patterns of enzyme expression, SCBN cells were cultured with DMEM media supplemented with FBS and collected at 24 hours post confluence. SCBN cells were seeded with DMEM supplemented with FBS at 1E5 cells/well in non-coated and rat-tail collagen-coated Falcon multiple insert plate. Twenty-four hours after seeding media were change with DMEM supplemented with FBS with DMEM supplemented with FBS in non-coated inert wells whereas the media in rat-tail collagen-coated wells were changed with Kinetana base media supplemented with 5 μM of Ro31-8220 and 5 mM of sodium butyrate. Forty-eight hours after medium change, SCBN cells were lysed with ⅕ strength of Tris buffered saline on ice and the whole cell lysate was assayed for enzyme activity by incubating the cell lysate with specific substrate for 60 minutes at 37° C. […]
# [9] = apical side (pre-absorption), six commercial ginkgo extract samples
# [10] = basal side (absorbed ingredients), six commercial ginkgo extract samples
molecule,measurement,setting,value
Ginkgolide C,"Ginkgo terpene lactone components ratio to Ginkgolide A, Apical side Mean",[1]; [9],0.32
same,"Ginkgo terpene lactone components ratio to Ginkgolide A, Basal side Mean",[1]; [10],0.20
CCCC(=O)[O-].[Na+] [sodium butyrate],TEER value,[2],about 175 ohm.cm^2
same,length of microvilli,[3],< 0.1 um
C[C@@H]1C(=O)O[C@H]2C[C@@]34[C@H]5C[C@@H](C(C)(C)C)[C@]36[C@@H](OC(=O)[C@@H]6O)O[C@@]4(C(=O)O5)[C@]21O [Ginkgolide A],"Ginkgo terpene lactone components ratio to Ginkgolide A, Apical side Mean",[1]; [9],1.00
same,"Ginkgo terpene lactone components ratio to Ginkgolide A, Basal side Mean",[1]; [10],1.00
CC1C(=O)OC2C(O)C34C5CC(C(C)(C)C)C36C(OC(=O)C6O)OC4(C(=O)O5)C12O (centres unmarked) [Ginkgolide B],"Ginkgo terpene lactone components ratio to Ginkgolide A, Apical side Mean",[1]; [9],0.20
same,"Ginkgo terpene lactone components ratio to Ginkgolide A, Basal side Mean",[1]; [10],0.12
C[C@@H]1O[C@@H](OC[C@H]2O[C@@H](Oc3c(-c4ccc(O)c(O)c4)oc4cc(O)cc(O)c4c3=O)[C@H](O)[C@@H](O)[C@@H]2O)[C@H](O)[C@H](O)[C@H]1O [Rutin],"Ginkgo intact flavone components ratio to Rutin, Apical Mean",[1]; [9],1.00
same,"Ginkgo intact flavone components ratio to Rutin, basal Mean",[1]; [10],1.00
CC(C)(C)[C@]1(O)CC2OC(=O)CC23C(=O)OC2OC(=O)[C@H](O)C231 (some centres unmarked) [Bilobalide],"Ginkgo terpene lactone components ratio to Ginkgolide A, Apical side Mean",[1]; [9],0.66
same,"Ginkgo terpene lactone components ratio to Ginkgolide A, Basal side Mean",[1]; [10],0.44
PEG 900,permeability,[4],too low to be measured
same,permeability,[5],too low to be measured
same,permeability,[6]; conditions of the invention,~1 ×10⁻⁶ cm/s
same,predicted human bioavailability,[6]; predicted from permeability under conditions of the invention,around 12%
same,bioavailability (reported),[7],10%
Ginkgolide J,"Ginkgo terpene lactone components ratio to Ginkgolide A, Apical side Mean",[1],0.86
same,"Ginkgo terpene lactone components ratio to Ginkgolide A, Basal side Mean",[1],0.55
"Cn1cc(C2=C(c3cn(CCCSC(=N)N)c4ccccc34)C(=O)NC2=O)c2ccccc21 [Ro31-8220, 2-{1-[3-(amidinothio)propyl]-1H-indol-3-yl}-3-(1-meethylindol-3-yl)-maleimide methanesulfonate]",TEER value,[2],about 680 ohm.cm^2
same,length of microvilli,[3],did not measurably increase
same,percentage of cells with long microvilli,[3]; compared with base medium,did not measurably increase
same,expression of alkaline phosphatase activity,[8],up-regulate

# From patent publication US20040115801A1, “Model epithelial cell cultures” (KINETANA GROUP INC., priority 2002, published 2004)
